Assay results: US12298319B2, “Method for measuring alpha value of muscarinic M1 receptor positive allosteric modulators” (Takeda Pharmaceutical Company Limited, priority 2017, dated 2025)
Like-named read-outs stand apart in the source and are kept apart here.

What was measured:
human M1Rs = molecular target: T1, human M1Rs (Homo sapiens, UniProt P11229); assay: Ca2+ flux assay in CHO-K1 cells stably expressing human M1R (FLIPR), agonist and PAM mode, operational model fit; format: cell-based; conditions: for log β Mean: allosteric effect of PAM on signaling efficacy of ACh; for log β Mean / Log TB Mean: operational model; for EC50: mean of three independent experiments; for Log TB Mean: intrinsic agonistic efficacy
T1 sequence (P11229 1-460): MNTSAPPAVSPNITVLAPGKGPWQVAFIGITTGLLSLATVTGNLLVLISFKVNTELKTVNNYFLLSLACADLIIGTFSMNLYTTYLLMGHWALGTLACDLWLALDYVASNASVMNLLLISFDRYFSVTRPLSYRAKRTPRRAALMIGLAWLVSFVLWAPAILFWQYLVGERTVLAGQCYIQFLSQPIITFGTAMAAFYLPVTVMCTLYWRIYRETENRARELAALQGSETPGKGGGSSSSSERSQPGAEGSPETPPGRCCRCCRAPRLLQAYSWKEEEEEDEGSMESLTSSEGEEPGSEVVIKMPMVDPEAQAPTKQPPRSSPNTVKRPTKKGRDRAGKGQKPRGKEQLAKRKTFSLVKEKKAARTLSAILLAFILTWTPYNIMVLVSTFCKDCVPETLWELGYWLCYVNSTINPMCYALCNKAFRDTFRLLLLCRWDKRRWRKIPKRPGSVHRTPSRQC
Description: Chinese hamster ovary (CHO-K1) cells stably expressing human M1Rs (hM1R-CHO) were plated in black-walled clear-bottomed 384-well plates (5,000 cells/well) and cultured overnight at 37° C. in the presence of 5% CO2 in Ham's F-12 medium supplemented with 10% FBS and 100 U/mL penicillin-streptomycin. The following day, the medium was removed and incubated with assay buffer (Hank's balanced salt solution with 20 mM HEPES, 0.1% fatty acid free BSA) containing 2.5 μg/mL Fluo-4 AM and 1.25 mM probenecid for 30 min at 37° C. in the presence of 5% CO2. After 30 min incubation at room temperature, cells were stimulated with compounds. In this experiment, ACh and each PAM were added to the cells simultaneously. Calcium flux was measured using a fluorescence imaging plate reader (FLIPR) tetra system (Molecular Devices, Sunnyvale, CA).
[formula] the pharmacological effect and Emax denotes the maximum possible effect; [A] and [B] are the concentrations of ACh and PAM, respectively; KA and KB denote the equilibrium dissociation constants of ACh and PAM, respectively; τA and τB represent the operational measures of ACh and PAM efficacy, respectively; a is the binding cooperativity between ACh and PAM (activity to enhance ACh affinity to M1R); β is the magnitude of the allosteric effect of PAM on the signaling efficacy of ACh; n denotes the slope factor. For the analysis of functional data, the equilibrium dissociation constant of each PAM and the cooperativity between ACh and each PAM were fixed to those determined from the binding experiments.
EC50, eliciting 50% of the maximal response of an endogenous ligand, ACh, reflects the agonistic activity for M1R under conditions without ACh. […] Results of the in vitro functional parameters for M1R represent the mean and S.E.M. of three independent experiments. N/A stands for “not available”. PAM means positive allosteric modulator (Table 1).

M3R = M3R (Homo sapiens, UniProt P20309); assay: Ca2+ flux PAM activity against other muscarinic receptor subtypes, M3R; format: cell-based; conditions: in the presence of EC20 ACh; read-out: PAM activity against other muscarinic receptor subtypes M3R pIP
M4R = molecular target: T2, M4R (Homo sapiens, UniProt P08173); assay: Ca2+ flux PAM activity against other muscarinic receptor subtypes, M4R; format: cell-based; conditions: in the presence of EC20 ACh; read-out: PAM activity against other muscarinic receptor subtypes M4R pIP (converted)
T2 sequence (P08173 1-479): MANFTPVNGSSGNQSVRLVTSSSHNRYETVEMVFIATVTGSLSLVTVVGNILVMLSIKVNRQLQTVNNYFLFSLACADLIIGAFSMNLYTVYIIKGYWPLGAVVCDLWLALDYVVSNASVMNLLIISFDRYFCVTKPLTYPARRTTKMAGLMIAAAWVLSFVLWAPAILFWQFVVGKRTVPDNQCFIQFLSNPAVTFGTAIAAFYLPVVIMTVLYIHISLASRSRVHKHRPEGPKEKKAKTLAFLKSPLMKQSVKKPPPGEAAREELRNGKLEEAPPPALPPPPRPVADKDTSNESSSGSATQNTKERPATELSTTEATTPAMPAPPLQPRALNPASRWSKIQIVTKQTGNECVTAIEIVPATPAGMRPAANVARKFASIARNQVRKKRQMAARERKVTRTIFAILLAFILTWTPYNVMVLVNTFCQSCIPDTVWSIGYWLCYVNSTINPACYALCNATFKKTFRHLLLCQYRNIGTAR

M5R = molecular target: T3, M5R (Homo sapiens, UniProt P08912); assay: Ca2+ flux PAM activity against other muscarinic receptor subtypes, M5R; format: cell-based; conditions: in the presence of EC20 ACh; read-out: PAM activity against other muscarinic receptor subtypes M5R pIP
T3 sequence (P08912 1-532): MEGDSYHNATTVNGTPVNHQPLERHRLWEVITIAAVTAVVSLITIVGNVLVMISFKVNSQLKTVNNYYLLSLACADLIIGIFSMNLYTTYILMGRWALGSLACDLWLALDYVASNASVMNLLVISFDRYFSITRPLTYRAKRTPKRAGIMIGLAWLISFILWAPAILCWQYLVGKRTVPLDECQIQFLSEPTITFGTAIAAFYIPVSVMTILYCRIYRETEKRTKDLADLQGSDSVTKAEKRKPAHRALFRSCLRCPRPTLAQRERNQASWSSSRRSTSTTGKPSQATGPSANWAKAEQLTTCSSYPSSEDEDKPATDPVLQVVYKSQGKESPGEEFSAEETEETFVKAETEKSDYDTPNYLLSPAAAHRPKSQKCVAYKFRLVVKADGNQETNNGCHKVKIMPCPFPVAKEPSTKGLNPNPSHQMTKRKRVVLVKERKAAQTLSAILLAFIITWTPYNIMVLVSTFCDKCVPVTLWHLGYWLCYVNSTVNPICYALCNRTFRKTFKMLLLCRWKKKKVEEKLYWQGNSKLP

mice = assay: Assessment of diarrhea in mice; format: in vivo, mouse; conditions: for diarrhea induction: mice
Description: FIG. 1 depicts diarrhea induction by Compound C treatment in WT and M1R KO mice (hereinafter sometimes to be indicated as “MIKO mouse” in the present DESCRIPTION) (Example 11). […] The maximum score during the observation was adopted.
On the day of the experiment, mice were randomly divided into four groups (n=6-9). […] Each mouse was treated with either vehicle (10 or 20 mL/kg) or a single dose of each compound, including Compound A (3, 10 or 30 mg/kg p.o.), Compound B (10, 30, 100, 300 or 1,000 mg/kg p.o.) or Compound C (10 mg/kg p.o.). The animals were monitored, and scored the severity of diarrhea at 0.5, 1, 2, 4 and 6 h after administration. […] The highest score during the observation was adopted.

[1] = inflection point in the presence of EC20 ACh, read-out: M1PAM activity pIP Mean (converted)
[2] = without ACh, read-out: M1 agonist activity pEC50 Mean (converted)

M3R, sequence (P20309 whole entry): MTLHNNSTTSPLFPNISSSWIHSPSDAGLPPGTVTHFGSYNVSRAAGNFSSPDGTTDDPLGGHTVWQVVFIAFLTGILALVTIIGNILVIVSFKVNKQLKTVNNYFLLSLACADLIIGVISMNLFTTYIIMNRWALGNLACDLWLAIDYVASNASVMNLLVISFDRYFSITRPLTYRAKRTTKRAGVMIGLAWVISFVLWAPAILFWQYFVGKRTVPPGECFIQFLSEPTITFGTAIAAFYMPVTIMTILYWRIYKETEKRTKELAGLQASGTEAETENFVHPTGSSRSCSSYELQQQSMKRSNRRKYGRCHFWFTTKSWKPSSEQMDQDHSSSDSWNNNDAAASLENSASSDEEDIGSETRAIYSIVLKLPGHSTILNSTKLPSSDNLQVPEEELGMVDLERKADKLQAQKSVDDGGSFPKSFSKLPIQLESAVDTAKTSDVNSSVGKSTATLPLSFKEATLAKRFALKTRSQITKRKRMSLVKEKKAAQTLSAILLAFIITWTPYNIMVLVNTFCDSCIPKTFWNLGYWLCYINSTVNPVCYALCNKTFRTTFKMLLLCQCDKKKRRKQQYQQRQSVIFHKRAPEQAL

Row | SMILES | log β Mean (human M1Rs) | EC50 (human M1Rs; [1]) | Log TB Mean (human M1Rs) | EC50 (human M1Rs; [2]) | EC50 (M3R) | EC50 (M4R) | EC50 (M5R) | diarrhea induction (mice; 10 and 30 mg/kg p.o.) | diarrhea induction (mice; up to 1000 mg/kg p.o.) | diarrhea induction in M1R KO mice (mice; 10 mg/kg p.o., M1R KO mice) | diarrhea induction in WT mice (mice; 10 mg/kg p.o., WT mice)
1 | Cn1ccc(-c2ccc(CN3Cc4cccc(O[C@H]5CCCC[C@@H]5O)c4C3=O)cc2)n1 [Compound A, 7-(((1S,2S)-2-hydroxycyclohexyl)oxy)-2-(4-(1-methyl-1H-pyrazol-3-yl)benzyl)isoindolin-1-one] | 0.13 | 10.2 nM | 2.06 | 72.4 nM | > 10000 nM | 1000 nM | > 10000 nM | caused severe diarrhea | – | – | –
2 | Cn1cc(-c2ccc(CN3Cc4cccc(Oc5c(F)cccc5C#N)c4C3=O)cc2)cn1 [Compound B, 3-fluoro-2-((2-(4-(1-methyl-1H-pyrazol-4-yl)benzyl)-3-oxo-2,3-dihydro-1H-isoindol-4-yl)oxy)benzonitrile] | 0.58 | 40.7 nM | −0.10 | 676 nM | > 10000 nM | > 10000 nM | > 10000 nM | – | did not induce severe diarrhea | – | –
3 | Cn1cc(-c2ccc(Cc3cc4c(=O)n([C@H]5CCCC[C@@H]5O)cnc4c4ccccc34)cn2)cn1 [Compound C, 3-((1S,2S)-2-hydroxycyclohexyl)-6-((6-(1-methyl-1H-pyrazol-4-yl)pyridin-3-yl)methyl)benzo[h]quinazoline-4(3H)-one, reference compound] | −0.39 | 2.09 nM | 1.49 | 1.62 nM | > 10000 nM | > 10000 nM | > 10000 nM | – | – | not in M1R KO mice | induced diarrhea
4 | O=c1c2cn(Cc3ccc(-n4cccn4)cc3)c3ccccc3c-2nn1-c1ccccc1F [Compound E, 2-(2-fluorophenyl)-5-(4-(1H-pyrazol-1-yl)benzyl)-2,5-dihydro-3H-pyrazolo[4,3-c]quinolin-3-one, reference compound] | −0.23 | 8.51 nM | 0.65 | 219 nM | > 10000 nM | > 10000 nM | > 10000 nM | – | – | – | –
5 | Cn1cc(-c2ccc(CN3Cc4cccc(OCCN5CCCCC5)c4C3=O)cc2)cn1 [Compound F, 2-(4-(1-methyl-1H-pyrazol-4-yl)benzyl)-7-(2-(piperidin-1-yl)ethoxy)isoindolin-1-one] | 0.87 | 79.4 nM | 0.15 | 2090 nM | > 10000 nM | > 10000 nM | > 10000 nM | – | – | – | –
6 | Cn1cc(-c2ccc(CN3Cc4cccc(-c5ccn[nH]5)c4C3=O)cc2)cn1 [Compound G, 2-(4-(1-methyl-1H-pyrazol-4-yl)benzyl)-7-(1H-pyrazol-5-yl)isoindolin-1-one] | 0.85 | 275 nM | – | > 10000 nM | > 10000 nM | > 10000 nM | > 10000 nM | – | – | – | –
